Tests used:
[1] = system: SK OV-3 (ovarian cancer cell); test: Measurement of cellular proliferation, SK OV-3 cells; type: cell-based; conditions: SK-OV-3, 48 hours
Method: Measurement of cellular proliferation: LNCaP cells at 2.5×10^4/well or PC3 cells at 5×10^4/well, both in a final volume of 100 μl, were plated in triplicate in standard flat bottom 96 well tissue culture plates in the presence of drug or vehicle (DMSO). Unless otherwise indicated, cells were grown for 48 hours at 37° C. in a CO2 incubator. Relative cell growth was determined with the CellTiter 96 aqueous cell proliferation assay (Promega, Madison, Wis.) as described by the manufacturer using an automated plate reader. Results were calculated in a blinded fashion and are means of triplicate determinations.
For the 48 hour proliferation, cells were cultured with calcium channel antagonists or without calcium channel antagonists. The IC50 values of the calcium channel antagonists were determined.
Using the measurement cell proliferation assay described hereinabove, the cell lines Jurkat, LNCap (prostate cancer cell), PC-31 (prostate cancer cell), DU145 (prostate cancer cell), MDA-468 (breast cancer cell), MDA-36 (Breast cancer cell), MCF-7 (breast cancer cell), MIA PaCa-2 (pancreatic cancer cell), Hep G2 (liver cancer cell), A549 (non-small cell lung cancer cells), NCI H460 (non-small cell lung cancer cells), HT-29 (colon cancer cell), HCT-116 (colon cancer cell) and SK OV-3 (ovarian cancer cell) were cultured in the presence of TH-1177, TH-1205, TH-1201, TH-2109, TH-2029, TH-2043, TN-2085 and TH-2279.

[2] = biological target: T1, α1H subunit of a calcium channel of a human heart (Homo sapiens, UniProt O95180); test: Whole cell current recording, Xenopus oocytes transfected with α1H subunit; type: cell-based
T1 construct: expressed in transfected cells; host or cells: Xenopus oocytes (so in the source), pcDNA3 plasmid
T1 sequence (O95180 whole entry): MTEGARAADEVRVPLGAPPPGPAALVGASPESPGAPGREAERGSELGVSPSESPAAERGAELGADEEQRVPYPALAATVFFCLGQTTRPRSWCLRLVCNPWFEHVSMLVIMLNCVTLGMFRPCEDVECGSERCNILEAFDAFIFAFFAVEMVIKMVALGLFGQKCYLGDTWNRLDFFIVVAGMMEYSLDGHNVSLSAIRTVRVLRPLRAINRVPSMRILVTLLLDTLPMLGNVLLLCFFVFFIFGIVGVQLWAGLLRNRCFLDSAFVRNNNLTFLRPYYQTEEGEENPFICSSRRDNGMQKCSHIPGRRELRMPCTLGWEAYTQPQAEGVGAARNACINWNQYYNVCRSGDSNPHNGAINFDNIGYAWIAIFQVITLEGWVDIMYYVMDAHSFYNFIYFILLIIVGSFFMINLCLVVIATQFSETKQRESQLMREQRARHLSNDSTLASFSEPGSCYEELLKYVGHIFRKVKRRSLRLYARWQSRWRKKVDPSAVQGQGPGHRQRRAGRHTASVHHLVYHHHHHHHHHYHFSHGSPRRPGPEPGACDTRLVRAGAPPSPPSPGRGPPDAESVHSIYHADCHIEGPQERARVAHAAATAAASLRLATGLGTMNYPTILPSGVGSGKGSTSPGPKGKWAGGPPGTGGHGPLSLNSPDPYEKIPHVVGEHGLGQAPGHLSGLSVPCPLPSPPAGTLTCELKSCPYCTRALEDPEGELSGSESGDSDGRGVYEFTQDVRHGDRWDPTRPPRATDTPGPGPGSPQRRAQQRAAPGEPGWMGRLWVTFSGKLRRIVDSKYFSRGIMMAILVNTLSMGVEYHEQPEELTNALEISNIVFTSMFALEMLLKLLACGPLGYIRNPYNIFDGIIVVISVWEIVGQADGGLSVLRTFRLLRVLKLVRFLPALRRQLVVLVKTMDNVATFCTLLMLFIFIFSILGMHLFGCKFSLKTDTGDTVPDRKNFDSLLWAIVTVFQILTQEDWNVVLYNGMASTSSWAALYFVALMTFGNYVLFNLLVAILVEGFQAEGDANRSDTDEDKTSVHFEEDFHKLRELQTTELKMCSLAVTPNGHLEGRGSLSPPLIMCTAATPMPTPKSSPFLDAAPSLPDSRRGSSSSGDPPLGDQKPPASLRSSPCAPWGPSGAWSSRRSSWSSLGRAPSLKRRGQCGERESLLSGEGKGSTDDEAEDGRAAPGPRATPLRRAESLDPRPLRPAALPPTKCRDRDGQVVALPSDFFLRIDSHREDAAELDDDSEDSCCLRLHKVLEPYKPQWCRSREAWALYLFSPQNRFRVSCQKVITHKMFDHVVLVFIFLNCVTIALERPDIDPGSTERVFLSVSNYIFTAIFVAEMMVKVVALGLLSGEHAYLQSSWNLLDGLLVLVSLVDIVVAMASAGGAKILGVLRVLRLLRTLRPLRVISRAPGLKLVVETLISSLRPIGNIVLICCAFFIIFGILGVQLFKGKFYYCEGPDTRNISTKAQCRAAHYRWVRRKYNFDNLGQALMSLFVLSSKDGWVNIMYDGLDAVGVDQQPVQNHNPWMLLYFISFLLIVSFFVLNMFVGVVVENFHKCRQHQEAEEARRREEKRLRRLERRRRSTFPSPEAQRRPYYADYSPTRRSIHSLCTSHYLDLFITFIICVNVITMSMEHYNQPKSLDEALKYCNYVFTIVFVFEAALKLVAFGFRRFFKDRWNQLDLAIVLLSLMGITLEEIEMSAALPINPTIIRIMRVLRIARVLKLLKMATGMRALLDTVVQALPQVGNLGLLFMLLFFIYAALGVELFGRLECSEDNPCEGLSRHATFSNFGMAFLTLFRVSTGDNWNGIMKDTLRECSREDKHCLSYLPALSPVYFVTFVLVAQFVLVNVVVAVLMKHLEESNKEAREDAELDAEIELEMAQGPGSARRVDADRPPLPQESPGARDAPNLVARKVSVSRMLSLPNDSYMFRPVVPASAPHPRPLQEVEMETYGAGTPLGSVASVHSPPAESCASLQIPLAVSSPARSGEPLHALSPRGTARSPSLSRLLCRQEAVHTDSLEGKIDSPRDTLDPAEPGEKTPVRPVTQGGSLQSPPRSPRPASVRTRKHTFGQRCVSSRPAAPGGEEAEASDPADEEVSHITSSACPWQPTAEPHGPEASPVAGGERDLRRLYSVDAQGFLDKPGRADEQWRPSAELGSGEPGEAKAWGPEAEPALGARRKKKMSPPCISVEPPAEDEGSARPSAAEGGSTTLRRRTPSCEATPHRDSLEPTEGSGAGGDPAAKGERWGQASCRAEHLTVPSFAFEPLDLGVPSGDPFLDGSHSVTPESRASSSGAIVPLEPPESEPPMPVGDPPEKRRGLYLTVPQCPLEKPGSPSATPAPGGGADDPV
Description: Xenopus oocytes were transfected with the α1H subunit of a calcium channel of a human heart prepared in accordance with the procedure described by Cribbs, et al. in Circulation Research, 1998, 83, 103-109, the contents of which are incorporated by reference. The α1H plasmid was obtained by cloning the α1H sequence into the EcoRV-X baI site of the transfection vector pcDNA3, in accordance with the procedure described in the Cribbs, et al. article. Xenopus oocyte cells (1×10^5 per 35 mm dish) were transfected with 2 μg of alpha 1H-Tx plasmid. […] The internal pipette solution contained (mmol/L) CsCl 55, CS SO3 75, MgCl2 10, EGTA 0.1, and HEPES 10 (pH adjusted to 7.2 with (CsOH). Currents were recorded using an Axopatch 200A, a Digidata 1200 A/D converter and pCLAMP software (Axon Instruments, Inc.).
The current of the cell in the depolarized cell was recorded over time (control). Within a few minutes after the control plot was recorded, the cells were again depolarized, but this time, the bath contained in addition 10 μM TH-1177. The current was recorded for the same length of time as the control. The current was recorded at about zero pA. Then the cells in the bath containing 10 μM TH-1177 were depolarized again, but this time the bath medium containing TH-1177 was aspirated out and replaced with fresh calcium medium depolarizing medium and the current was measured.

[3] = Toxicity in SCID mice without tumors; type: in vivo; conditions: 180 mg/kd/d
Method: Four SCID mice without tumors were given TH-1177 at a dose of 180 mg/kd/d.

COc1ccc(CCN2CCC[C@H]2COC(c2ccccc2)c2ccc(Cl)cc2)cc1 (some centres unmarked) [TH-1177]
IC50 [1]: 25 µM | Current in depolarized α1H-transfected cells ([2]; 10 μM TH-1177 in bath): about zero | Ability of calcium to cross the cell membrane ([2]; α1H-transfected Xenopus oocytes, 10 μM, restored on washout): inhibits | Gross findings at necropsy [3]: no gross abnormalities | Histological examination of kidney, adrenal gland, heart and liver [3]: within normal limits
